What was measured:
[1] = target: Nox1 expressing CHO cells (Homo sapiens (Human), UniProt Q9Y5S8); experiment: Oxygen consumption in Nox1 expressing CHO cells; type: cell-based
[2] = target: Nox4 expressing HEK293 cells (Homo sapiens (Human), UniProt Q9NPH5); experiment: Oxygen consumption in Nox4 expressing HEK293 cells; type: cell-based
hNox4 = hNox4 (Homo sapiens (Human), UniProt Q9NPH5); experiment: hNox4 membrane assay (Amplex Red, cell-free); type: biochemical
Protocol: (§1) Reactive oxygen produced in whole cells or in membrane preparation of Nox1, Nox3, Nox4, Nox5 and xanthine oxidase and glucose oxidase were determined using Amplex Red as detection probe of formed H2O2. Amplex Red (10-acetyl-3,7-dihydroxyphenoxazine) in combination with HRP and co-factors reacts with H2O2 in a 1:1 stoichiometry to form a highly fluorescent resorufin excitated at 544 nm producing emission at 590 nm.
Membranes from transfected cells overexpressing Nox1 (CHO), Nox2 (PLB), Nox3 (HEK), Nox4 (HEK) or Nox5 (HEK) were prepared as described in Pailcz et al., 2001, J. Biol. Chem, 76, 3090-3097. Cells were suspended and homogenized in sonication buffer containing PBS, sucrose (11%), NaCl (120 mM) and EGTA (1 mM) supplemented with protease inhibitors and further processed and then broken by sonication cooled with an ice bath. Then the sample was centrifuged at 200×g for 10 min. Supernatant was carefully added on top of a 17/40% discontinuous sucrose gradient and centrifuged at 150 000×g for 60 min. Membranes containing Nox isoforms were collected at the 17/40% sucrose interface as described by Jaquet V, et al., Br J Pharmacol 2011; 164:507-520. For the Nox isoforms Nox1, Nox2, Nox3 a subunit-specific cell-free, membrane-based system has been developed and recombinant proteins of the subunits were added to receive activation of the Nox-iso forms in the cell-free assay. The Amplex Red assay was performed in black 96-well flat bottom plates. Assay reagents including HRP ([…]), FAD (6 μM), phosphatidic acid (15 μM) and Amplex Red (50 μM) were added followed by NADPH (30 μM) to initiate production of hydrogen peroxide. The production of hydrogen peroxide was followed by use of a fluorescence plate reader, read at 37° C. every minute between 30-60 minutes.

[3] = system: Nox1, Nox2, Nox3 and Nox5; experiment: Activity on Nox1, Nox2, Nox3 and Nox5; type: cell-based
Protocol: as §1
(§2) Adherent cells (CHO, HEK) were collected by trypsinization, centrifuged, washed with HBSS, counted, and resuspended in HBSS. Cells were seeded in 96-well black flat bottom plates at a density of 50,000-100,000 cells/well. All compounds were dissolved in DMSO and concentrations ranging from 0.003 to 200 μM were tested in Nox cellular assays with a final concentration of DMSO of 1%. Cells were incubated at 37° C. with the compounds for 30 minutes before measurement. Cells expressing Nox1 and Nox2 were activated with the PKC activator PMA (0.1 μM). Nox5 was activated with the Ca2+ ionophore ionomycin (1 μM) and further enforced with PMA. The CJ HEK 293 cells overexpressed Nox4 constitutively. In the HTS screen HEK 293 TRex was used and tetracycline (1 mg/ml) was added 18 h before measurement to induce Nox4 expression. Production of hydrogen peroxide by Nox in intact cells was measured using Amplex Red fluorescence as described by Jaquet V, et al., Br J Pharmacol 2011; 164:507-520. […] Fluorescence was read in a fluorescence plate reader at 37° C. every minute between 30-60 minutes.
Compounds of the invention were tested for selectivity against Nox2 in isolated neutrophils from whole blood (human), as previously described (Anvari E, et al., vide supra). Levels of ROS from PMA stimulated primary human neutrophils were measured using isoluminol-dependent chemiluminescence. […] The dye is excited by ROS and the light emitted when the excited molecules return to the ground state, relative to the amount of released ROS, is measured. […] Luminescence was detected using FluoStar Optima (BMG, Labtech). […]

glucose oxidase = glucose oxidase (Aspergillus niger, UniProt P13006); experiment: Amplex Red and glucose oxidase (GO) assay; type: biochemical; parameters: key: The sign “—” stands for “inactive”
Protocol: as §1
The assay was performed using a modified form of Invitrogen Amplex™ Red Glucose/Glucose Oxidase Assay Kit Cat no: A22189. Test compounds were incubated with 5 mU/ml glucose oxidase for 30 min at room temperature, followed by the addition of substrate and detection mix (final concentrations of 0.1 U/ml HRP, 10 mM glucose, 50 μM Amplex Red in phosphate buffer pH 7.4) and then fluorescence detection of hydrogen peroxide production was performed during 30 min at 37° C. in a plate reader that use excitation at 544 nm producing emission at 590 nm.

Nox3 = Nox3 (Homo sapiens (Human), UniProt Q9HBY0); experiment: Amplex Red assay of Nox3 expressing HEK cells; type: cell-based; parameters: key: The sign “—” stands for “inactive”
From the text: HEK293 overexpressing Nox4 (CJ Nox4) cells were purchased from Redoxis, Lund, Sweden. HEK 293 cells expressing Nox5, Nox3 (HEK TRex) and CHO cells expressing Nox1, were a kind gift from Vincent Jaque Center Medical Universitaire, Geneva, Switzerland. Nox2 expressed in isolated neutrophils were isolated from whole blood (human), as previously described (Anvari E, et al., Free Radic Res 2015; 49:1308-1318).
HEK293T cells expressing tetracycline-inducible human (Nox3 or Nox4) and HEK293 cells stably expressing human Nox5 were generated as described previously (Serrander et al., 2007a,b). HEK cells were cultured in Dulbecco's modified Eagle medium (DMEM) with 4.5 g/l glucose, supplemented with FBS (10%), penicillin (100 U/ml) and streptomycin […] at 37° C. in air with 5% CO2.
as §1
as §2, with “Nox5 was activated with the Ca2+ ionophore ionomycin (1 μM) and further enforced with PMA. The CJ HEK 293 cells overexpressed Nox4 constitutively. In the HTS screen HEK 293 TRex was used and tetracycline (1 mg/ml) was added 18 h before measurement to induce Nox4 expression.” left out

Chain of Nox1 expressing CHO cells (Q9Y5S8 whole entry): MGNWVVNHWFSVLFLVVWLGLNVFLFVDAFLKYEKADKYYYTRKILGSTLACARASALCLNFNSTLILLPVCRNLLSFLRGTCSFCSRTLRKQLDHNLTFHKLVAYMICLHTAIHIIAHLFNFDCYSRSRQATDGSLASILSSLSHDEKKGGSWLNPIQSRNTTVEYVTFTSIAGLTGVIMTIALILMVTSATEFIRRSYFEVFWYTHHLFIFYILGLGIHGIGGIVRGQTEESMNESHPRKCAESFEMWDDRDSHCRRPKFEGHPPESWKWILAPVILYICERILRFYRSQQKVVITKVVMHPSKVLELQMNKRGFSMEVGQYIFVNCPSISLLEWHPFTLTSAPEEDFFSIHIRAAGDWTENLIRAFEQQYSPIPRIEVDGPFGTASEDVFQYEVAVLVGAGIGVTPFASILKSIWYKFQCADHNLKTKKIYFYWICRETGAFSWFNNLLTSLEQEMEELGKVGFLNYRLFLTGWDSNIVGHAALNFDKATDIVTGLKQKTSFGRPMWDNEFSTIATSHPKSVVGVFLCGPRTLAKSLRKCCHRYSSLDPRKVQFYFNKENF
Chain of Nox1 expressing CHO cells (P13498 2-195 partner): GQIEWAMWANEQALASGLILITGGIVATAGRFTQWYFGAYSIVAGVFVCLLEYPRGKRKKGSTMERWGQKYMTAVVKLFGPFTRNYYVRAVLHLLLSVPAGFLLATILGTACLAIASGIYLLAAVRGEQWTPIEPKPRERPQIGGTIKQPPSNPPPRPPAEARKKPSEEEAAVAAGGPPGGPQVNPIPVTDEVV
Chain of Nox3 (Q9HBY0 whole entry): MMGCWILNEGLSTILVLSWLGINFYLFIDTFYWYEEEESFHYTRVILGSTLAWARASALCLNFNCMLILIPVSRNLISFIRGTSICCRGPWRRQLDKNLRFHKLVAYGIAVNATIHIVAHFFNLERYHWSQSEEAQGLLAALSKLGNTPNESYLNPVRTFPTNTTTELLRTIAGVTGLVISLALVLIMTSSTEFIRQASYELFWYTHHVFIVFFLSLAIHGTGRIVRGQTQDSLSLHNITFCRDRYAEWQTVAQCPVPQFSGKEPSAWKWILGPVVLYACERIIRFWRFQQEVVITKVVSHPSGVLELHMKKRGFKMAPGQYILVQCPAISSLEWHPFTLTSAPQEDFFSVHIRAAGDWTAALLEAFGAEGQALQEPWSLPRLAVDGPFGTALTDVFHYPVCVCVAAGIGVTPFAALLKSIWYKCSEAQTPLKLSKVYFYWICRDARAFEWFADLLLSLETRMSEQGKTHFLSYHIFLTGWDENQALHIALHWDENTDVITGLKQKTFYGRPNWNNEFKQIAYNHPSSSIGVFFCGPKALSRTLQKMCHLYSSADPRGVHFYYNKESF
Chain of Nox3 (P13498 2-195 partner): as the sequence (P13498 2-195 partner) above
Chain of hNox4 (Q9NPH5 whole entry): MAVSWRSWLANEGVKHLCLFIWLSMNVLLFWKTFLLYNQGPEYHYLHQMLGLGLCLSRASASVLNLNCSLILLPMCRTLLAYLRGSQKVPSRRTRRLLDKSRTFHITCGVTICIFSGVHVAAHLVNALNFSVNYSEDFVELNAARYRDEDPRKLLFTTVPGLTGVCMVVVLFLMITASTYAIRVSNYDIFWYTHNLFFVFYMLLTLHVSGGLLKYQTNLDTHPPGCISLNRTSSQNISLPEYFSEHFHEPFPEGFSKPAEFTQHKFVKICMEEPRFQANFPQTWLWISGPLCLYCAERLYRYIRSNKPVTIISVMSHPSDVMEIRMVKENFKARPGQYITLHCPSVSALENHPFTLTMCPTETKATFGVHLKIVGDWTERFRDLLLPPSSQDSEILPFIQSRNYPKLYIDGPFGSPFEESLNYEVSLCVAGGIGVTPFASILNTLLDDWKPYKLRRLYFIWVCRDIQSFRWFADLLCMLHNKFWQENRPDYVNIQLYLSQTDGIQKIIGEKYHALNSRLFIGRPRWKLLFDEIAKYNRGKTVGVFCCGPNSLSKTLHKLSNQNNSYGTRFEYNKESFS
Chain of hNox4 (P13498 2-195 partner): as the sequence (P13498 2-195 partner) above
Chain of Nox4 expressing HEK293 cells (Q9NPH5 whole entry): as the sequence (Q9NPH5 whole entry) above
Chain of Nox4 expressing HEK293 cells (P13498 2-195 partner): as the sequence (P13498 2-195 partner) above
Chain of glucose oxidase (P13006 17-605): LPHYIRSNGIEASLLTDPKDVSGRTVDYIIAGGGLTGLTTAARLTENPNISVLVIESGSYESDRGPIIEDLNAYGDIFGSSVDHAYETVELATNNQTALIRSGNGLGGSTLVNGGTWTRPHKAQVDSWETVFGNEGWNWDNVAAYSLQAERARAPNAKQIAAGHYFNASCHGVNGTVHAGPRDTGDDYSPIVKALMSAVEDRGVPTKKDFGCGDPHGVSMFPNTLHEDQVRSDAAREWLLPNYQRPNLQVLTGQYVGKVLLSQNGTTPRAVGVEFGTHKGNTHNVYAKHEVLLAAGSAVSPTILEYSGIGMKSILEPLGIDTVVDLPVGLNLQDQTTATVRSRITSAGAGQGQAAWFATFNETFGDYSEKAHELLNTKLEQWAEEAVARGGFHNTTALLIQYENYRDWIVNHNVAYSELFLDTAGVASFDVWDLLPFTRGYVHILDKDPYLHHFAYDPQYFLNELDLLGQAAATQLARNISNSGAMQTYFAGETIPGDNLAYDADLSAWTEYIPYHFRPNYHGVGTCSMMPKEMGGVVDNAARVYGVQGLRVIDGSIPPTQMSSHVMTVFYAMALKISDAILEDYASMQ

Compound	Inhibition of oxygen consumption in Nox1 expressing CHO cells [1]	Inhibition of oxygen consumption in Nox4 expressing HEK293 cells [2]	Ki (hNox4) [µM]	Activity on Nox1, Nox2, Nox3 and Nox5 [3]	IC50 GO (glucose oxidase)	IC50 Nox3 (Nox3)
Cc1ccccc1CCNS(=O)(=O)c1c(Cl)cc(Br)cc1Cl [Example 17, 4-bromo-2,6-dichloro-N-[2-(2-methylphenyl)ethyl]benzene-1-sulfonamide]	No	yes	0.56	inactive	—	—
O=S(=O)(NCCc1ccccc1Cl)c1c(Cl)cc(C2CC2)cc1Cl [Example 26, 2,6-dichloro-N-[2-(2-chlorophenyl)ethyl]-4-cyclopropylbenzene-1-sulfonamide]	No	yes	2.2	inactive	—	—
Cc1ccccc1CCNS(=O)(=O)c1c(C)cccc1Cl [Example 11, 2-chloro-6-methyl-N-[2-(2-methylphenyl)ethyl]benzene-1-sulfonamide]	No	yes	4.4	inactive	—	—

Reference: patent US12202790B2, “Sulfonamide derivatives having selective Nox inhibiting activity” (GLUCOX BIOTECH AB, priority 2018, dated 2025)
